A short description of series [1]: Circular dichroism spectroscopy of polypeptides in phosphate buffered saline. It is filed as physicochemical. As to conditions: 1 mg/ml. The method, then:
The conformational properties of the polypeptides were investigated to elucidate any secondary structure that might be necessary for polypeptide immunoreaction with human anti-EBNA antibodies. The polypeptides were dissolved at a concentration of 1 mg/ml in phosphate-buffered saline (PBS). Spectra were taken using 1 ml samples in a Cary 61 spectropolarimeter (Cary Instruments, Applied Physics Corp., Monrovia, Calif.) interfaced and automated with a Digital Equipment Corporation 11/02 computer (Digital Equipment Corporation, Maynard, Mass.).

The next series has as its system anti-EBNA antibodies. In words: ELISA with polypeptide as solid phase antigen, detecting anti-polypeptide antibodies in sera. It is filed as binding, human. As to conditions: for Reaction of VCA- sera with polypeptide: panel of 19 VCA- sera; for Reaction of sera of clinically normal VCA+ individuals with polypeptide: two serum dilutions; for Average titer of Progressive Systemic Schlerosis (PSS) patients to polypeptide compared with normals: high and low serum dilutions; for Number of 91 anti-EBNA positive (ACIF) sera positive against polypeptide: sera at 1:20 dilution. The method, then:
A solution containing a substrate for the enzyme label such as hydrogen peroxide for peroxidase and a color-forming dye precursor such as o-phenylenediamine, or p-nitrophenyl phosphate for alkaline phosphatase is thereafter admixed with the solid phase.
Anti-peptide antibody binding and inhibition studies were carried out by an enzyme-linked immunosorbent assay (ELISA) as described below.
Briefly, microtiter wells (Costar, #3590, Cambridge, Mass.) were coated with individual polypeptides as antigens by adding 100 microliters (ul) of BBS [10 millimoler (mM) sodium borate (pH 8.3), 150 mM NaCl] containing polypeptide at a concentration of 10 micrograms per milliliter (ug/ml). Contact between the wells and antigen-containing solution was maintained for a predetermined time, typically 15 minutes, and at 20 degrees C., to form an antigen-coated solid phase. The solid and liquid phases were separated and the wells were washed three times with BBS.
Non-specific binding sites were blocked by admixing 200 microliters of 1% bovine serum albumin (BSA) in each well to form another solid-liquid phase admixture, and maintaining that solid-liquid phase admixture for 30 minutes, at 20 degrees C. The phases were separated and excess, unbound BSA was removed by washinq three times with BBS.
[…] Contact between the diluted sera and the antigen-coated solid phase was maintained for a predetermined time such as 1 hour, and at 20 degrees C., for an immunoreactant to form. The solid and liquid phases were separated, and the solid phase; i.e., antigen-coated, immunoreactant-containing wells, was then washed three times with BBS.
The antibodies in human sera that immunoreacted with an adsored polypeptide were detected using an indicating means comprising alkaline phosphatase-conjugated goat anti-human Ig antibody (Tago, Burlington, CA). The antibodies in rabbit sera that immunoreacted with an adsorbed polypeptide were detected using an indicating means comprising alkaline phosphatase-conjugated goat anti-rabbit Ig antibody (Kirkegard & Perry Laboratories, Inc., Gaithersburg, Md.). In either instance, 100 microliters of the indicating antibody diluted 1:300 in BBS were added per well to form a further solid-liquid phase composition. This solidliquid phase composition was maintained for a predetermined time, one hour, for the formation of a reaction product between the human antibodies bound to the solid phase and the indicating means, and at 20 degrees C.

The values below come from patent USRE33897E, “Synthetic polypeptides and antibodies related to Epstein-Barr virus nuclear antigen” (Scripps Clinic and Research Foundation, priority 1989, dated 1992).

Each structure is given as a SMILES string. Residues, ends and D or L forms follow the SMILES beside them.

Take `CC[C@H](C)[C@H](N)C(=O)N[C@@H](CCSC)C(=O)N[C@@H](CO)C(=O)N[C@@H](CC(=O)O)C(=O)N[C@@H](CCC(=O)O)C(=O)NCC(=O)N1CCC[C@H]1C(=O)NCC(=O)N[C@H](C(=O)NCC(=O)N[C@@H](CC(N)=O)C(=O)NCC(=O)N[C@@H](CC(C)C)C(=O)NCC(=O)N[C@@H](CCC(=O)O)C(=O)O)[C@@H](C)O` [Polypeptide F12, H--Ile--Met--Ser--Asp--Glu--Gly--Pro--Gly--Thr--Gly--Asn--Gly--Leu--Gly--Glu--OH] (H-IMSDEGPGTGNGLGE-OH): in series [1], the “Conformation indicated by circular dichroism spectrum” value (“Conformation indicated” below) is “partial assumption of such conformation”. Further, in the series with anti-EBNA antibodies, the “Reaction of VCA- sera with polypeptide” value is recorded as “None of the VCA- sera were found to react positively” and the “Reaction of sera of clinically normal VCA+ individuals with polypeptide” value (“Reaction of sera … with polypeptide” below) was “all of the VCA+ indiviuals were positive”.
In the case of `C[C@H](NC(=O)CNC(=O)[C@@H]1CCCN1)C(=O)N1CCC[C@H]1C(=O)NCC(=O)NCC(=O)N[C@@H](CO)C(=O)NCC(=O)N[C@@H](CO)C(=O)NCC(=O)N1CCC[C@H]1C(=O)O` [Polypeptide F13, H--Pro--Gly--Ala--Pro--Gly--Gly--Ser--Gly--Ser--Gly--Pro--OH] (H-PGAPGGSGSGP-OH), the “Conformation indicated” value in series [1] was “random conformation”. Also, in the series with anti-EBNA antibodies, the “Reaction of VCA- sera with polypeptide” value was “None of the VCA- sera were found to react positively” and the “Reaction of sera … with polypeptide” value was “all of the VCA+ indiviuals were positive”.
Regarding `C[C@H](NC(=O)CNC(=O)CNC(=O)CNC(=O)[C@H](C)NC(=O)CNC(=O)[C@H](C)NC(=O)CNC(=O)CNC(=O)[C@H](C)NC(=O)CNC(=O)CNC(=O)[C@H](C)NC(=O)CNC(=O)CN)C(=O)NCC(=O)O` [Polypeptide F14, H--Gly--Gly--Ala--Gly--Gly--Ala--Gly--Gly--Ala--Gly--Ala--Gly--Gly--Gly--Ala--Gly--OH] (H-GGAGGAGGAGAGGGAG-OH), in series [1], the “Conformation indicated” value is listed as “very similar spectra”. For the same compound, in the series with anti-EBNA antibodies, the “Average titer of Progressive Systemic Schlerosis (PSS) patients to polypeptide compared with normals” value (“Average titer … compared with normals” below) is “relatively higher average titer”, the “Reaction of VCA- sera with polypeptide” value is “None of the VCA- sera were found to react positively”, the “Number of 91 anti-EBNA positive (ACIF) sera positive against polypeptide” value (shortened to “Number of 91 anti-EBNA positive”) is recorded as 91 and the “Reaction of sera … with polypeptide” value is “all of the VCA+ indiviuals were positive”.
With `C[C@H](NC(=O)CN)C(=O)NCC(=O)NCC(=O)N[C@@H](C)C(=O)NCC(=O)N[C@@H](C)C(=O)NCC(=O)NCC(=O)NCC(=O)N[C@@H](C)C(=O)NCC(=O)NCC(=O)N[C@@H](C)C(=O)NCC(=O)NCC(=O)O` [Polypeptide F15, H--Gly--Ala--Gly--Gly--Ala--Gly--Ala--Gly--Gly--Gly--Ala--Gly--Gly--Ala--Gly--Gly--OH] (H-GAGGAGAGGGAGGAGG-OH), the “Conformation indicated” value in series [1] was “very similar spectra”. Further, in the series on anti-EBNA antibodies, the “Average titer … compared with normals” value is “relatively higher average titer”, the “Reaction of VCA- sera with polypeptide” value was “None of the VCA- sera were found to react positively”, the “Number of 91 anti-EBNA positive” value was 91 and the “Reaction of sera … with polypeptide” value was “all of the VCA+ indiviuals were positive”.
As for `C[C@H](NC(=O)CNC(=O)CNC(=O)[C@H](C)NC(=O)CNC(=O)[C@H](C)NC(=O)CNC(=O)CNC(=O)[C@H](C)NC(=O)CNC(=O)[C@H](C)NC(=O)CNC(=O)CNC(=O)[C@H](C)NC(=O)CNC(=O)[C@H](C)NC(=O)CNC(=O)CN)C(=O)NCC(=O)N[C@@H](C)C(=O)NCC(=O)O` [Polypeptide F16, H--Gly--Gly--Ala--Gly--Ala--Gly--Gly--Ala--Gly--Ala--Gly--Gly--Ala--Gly--Ala--Gly--Gly--Ala--Gly--Ala--Gly--OH] (H-GGAGAGGAGAGGAGAGGAGAG-OH), in the series on anti-EBNA antibodies, the “Average titer … compared with normals” value is on record as “relatively higher average titer”, the “Reaction of VCA- sera with polypeptide” value is recorded as “None of the VCA- sera were found to react positively”, the “Number of 91 anti-EBNA positive” value was determined as 91 and the “Reaction of sera … with polypeptide” value was “all of the VCA+ indiviuals were positive”.
As to `C[C@H](NC(=O)CNC(=O)CNC(=O)[C@H](C)NC(=O)CNC(=O)[C@H](C)NC(=O)CNC(=O)[C@H](C)NC(=O)CNC(=O)[C@@H](NC(=O)CNC(=O)CNC(=O)[C@H](Cc1c[nH]cn1)NC(=O)[C@@H](NC(=O)CNC(=O)[C@@H](N)CCCCN)[C@@H](C)O)[C@@H](C)O)C(=O)NCC(=O)N[C@@H](C)C(=O)NCC(=O)O` [Polypeptide P27, H--Lys--Gly--Thr--His--Gly--Gly--Thr--Gly--Ala--Gly--Ala--Gly--Ala--Gly--Gly--Ala--Gly--Ala--Gly--OH] (H-KGTHGGTGAGAGAGGAGAG-OH), in series [1], the “Conformation indicated” value is reported as “very similar spectra”. In addition, the “OD405 × 10^3 obtained with patient antibodies to polypeptide, average ± one standard deviation” value with anti-EBNA antibodies (VCA- Normals (n = 27), dilution 1:20) stood at 67 ± 23 OD405 × 10^3. Also, in the series with anti-EBNA antibodies, the “Average titer … compared with normals” value is recorded as “relatively higher average titer”. Also, the “Reaction of VCA- sera with polypeptide” value in the series with anti-EBNA antibodies was “None of the VCA- sera were found to react positively”. Moreover, the “Number of 91 anti-EBNA positive” value in the series with anti-EBNA antibodies worked out at 91. In addition, the “Antibodies binding to polypeptide before and after EBV-induced infectious mononucleosis” value in the series with anti-EBNA antibodies (sera of two subjects) is “absent before infection, but appeared afterward”. The “OD405 × 10^3 obtained with patient antibodies to polypeptide” value is reported as 107 OD405 × 10^3 in the series with anti-EBNA antibodies (serum MV post-mononucleosis, dilution 1:20); 15 OD405 × 10^3 in the series with anti-EBNA antibodies (serum MV pre-mononucleosis, dilution 1:20); 33 OD405 × 10^3 in the series on anti-EBNA antibodies (serum SB post-mononucleosis, dilution 1:20); 11 OD405 × 10^3 with anti-EBNA antibodies (serum SB pre-mononucleosis, dilution 1:20); 155 OD405 × 10^3 in the series with anti-EBNA antibodies (serum VCA + Normal 1, dilution 1:20); 516 OD405 × 10^3 with anti-EBNA antibodies (serum VCA + Normal 2, dilution 1:20). For the same compound, in the series on anti-EBNA antibodies, the “Reaction of sera … with polypeptide” value is “all of the VCA+ indiviuals were positive”.
